{
  "source": "patent US12226393B2",
  "about": "“Neuroprotective compounds for amyotrophic lateral sclerosis” (THE JOHNS HOPKINS UNIVERSITY, priority 2019, dated 2025)",
  "key": {"[1]": {"tested_on": "control hiPSC-A/-MN co-cultures", "assay": "Multielectrode array (MEA) recording of control hiPSC-A/-MN co-cultures", "assay_type": "cell-based, human", "settings": "for hiPSC-Neuron spike activity: co-cultured 1 week", "from_the_text": "(§1) Multi-electrode array culture and recordings: Multi-electrode array (MEA) plates (MultiChannel Systems, 60MEA200/30iR-Ti-gr,) with 60 electrodes, including 59 active and 1 reference, and a MEA2100 (MultiChannel Systems) platform were used for the recording of neuronal activity in hiPSC-A/-MN co-cultures as we have previously described^50. Briefly, hiPSC-A from healthy subjects and ALS patients and hiPSC-MN from a single control line were serially co-cultured at densities of 100,000 cells/plate and 500,000 cells/plate, respectively. We analyzed the following electrophysiological parameters: spike rate, burst rate, and percentage of spiking and bursting electrodes (on the overall 59 recording electrodes). The recording of the baseline activity of MEA plates was performed every 3 days over 1-minute period for 2 weeks after initial plating. For pharmacological assays, we performed 5 minutes recordings to capture slower electrophysiological effects of HC blockers 36: baseline MEA activity for 1 minute, activity for 1 minute after 100 μl medium exchange with drug vehicle, and activity for 3 minutes after the exchange of 100 μl of medium containing the compound of interest and the drug vehicle. For analysis purposes, we considered only the electrodes with spike rate >0. Spiking and bursting activity is expressed as the mean of individual MEA plates."}, "[2]": {"tested_on": "ALS hiPSC-A / control hiPSC-MN co-cultures", "assay": "MEA recording of ALS hiPSC-A co-cultured with control hiPSC-MN", "assay_type": "cell-based, human", "settings": "for ALS astrocyte-mediated hyperexcitability (neuronal spiking and bursting activity): 10 μM, within 5 minutes", "from_the_text": "as §1"}, "hiPSC-MN alone": {"tested_on": "hiPSC-MN alone", "assay": "MEA recording of hiPSC-MN alone in culture", "assay_type": "cell-based, human", "settings": "10 μM"}, "[3]": {"tested_on": "FALS and SALS hiPSC-A/MN co-culture", "assay": "hiPSC-astrocyte / hiPSC-motor neuron direct co-culture, neuron survival by immunostaining", "assay_type": "cell-based, human", "settings": "for neuroprotection of control hiPSC-MN in co-culture with ALS hiPSC-A: 3 days", "experimental": "(§2) Human iPSC-astrocyte and hiPSC-motor neuron co-culture: Human iPSC-A form healthy subjects and ALS patients were cultured for 86 DIV and then plated in 24 well plates on glass cover-slips at a density of 20,000 cells/well. Four days later, hiPSC-MN from control samples, cultured for 60 DIV prior to use, were plated on the top of astrocytes at a density of 50,000 cells/well. This was considered day 1 of co-culture. Co-cultures were maintained in motor neuronal medium enriched with 1% FBS for a total of 14 days before fixing for immunocytochemistry. Co-culture medium was changed every third day with half medium exchange. For pharmacological assays on Cx43 HC, we used GAP19 (Tocris, 53533) at a concentration of 340 μM^21,50 and tonabersat (SB-220453) at concentrations of 1 μM, 10 μM and 100 μM^7,8 (Millipore Sigma, SML1354)."}, "[4]": {"tested_on": "transwell co-culture of FALS and SALS hiPSC-A with hiPSC-MN", "assay": "hiPSC-astrocyte / hiPSC-motor neuron transwell co-culture, neuron survival by immunostaining", "assay_type": "cell-based, human", "experimental": "Human iPSC-astrocyte and hiPSC-motor neuron co-culture in a transwell system: Human iPSC-MN from control samples were cultured for 56 DIV and then plated in 12 well plates on glass coverslips at a density of 250,000 cells/well. […] Four days later, the inserts with 90 DIV astrocytes were placed on the top of 12-well plates with 60 DIV motor neurons at the bottom. This was considered day 1 of “transwell” co-cultures. Half medium exchanges were performed from both the top and the bottom compartments. Transwell co-culture were otherwise maintained as conventional co-cultures and neurons on glass coverslips were fixed for immunocytochemistry after 14 days."}, "control hiPSC-MN": {"tested_on": "control hiPSC-MN", "assay": "Survival of control hiPSC-MN alone or co-cultured with control hiPSC-A", "assay_type": "cell-based, human", "settings": "several concentrations; hiPSC-MN alone or in co-culture with control hiPSC-A", "experimental": "Human iPSC-motor neuron culture: Briefly, NPC differentiated with the aforementioned spinal cord patterning protocol were cultured for up to 60 DIV with “neuronal differentiating medium”^58,59. To prevent astrocyte overproliferation, neuronal cultures were treated once with 0.02 μM cytosine arabinoside (Ara-C) (Millipore Sigma) for 48 h. While the majority of these cells are Tuj1+/ChAT+, consistent with a spinal motor neuronal phenotype, a smaller subset of neurons (Tuj1+/ChAT−) is also present and consists mainly of GABAergic interneurons^58.\nas §2"}, "Cx43 HC": {"molecular_target": "Cx43 HC (Homo sapiens, UniProt P17302)", "sequence (P17302 2-382 limits assumed)": "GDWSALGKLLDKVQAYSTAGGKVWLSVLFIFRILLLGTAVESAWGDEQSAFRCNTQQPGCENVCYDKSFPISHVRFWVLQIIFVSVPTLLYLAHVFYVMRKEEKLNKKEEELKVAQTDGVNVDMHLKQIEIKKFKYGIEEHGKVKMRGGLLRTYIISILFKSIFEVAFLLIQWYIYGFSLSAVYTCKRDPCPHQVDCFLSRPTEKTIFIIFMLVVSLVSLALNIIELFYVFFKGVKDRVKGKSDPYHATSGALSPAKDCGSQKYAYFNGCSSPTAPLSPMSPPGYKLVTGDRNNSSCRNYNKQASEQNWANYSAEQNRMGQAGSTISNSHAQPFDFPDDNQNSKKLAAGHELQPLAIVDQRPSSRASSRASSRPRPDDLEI", "settings": "cited from earlier work"}, "[5]": {"settings": "cited from earlier work; for tolerability / safety: humans, phase II clinical trials"}, "[6]": {"settings": "in vivo; cited from earlier work"}, "[7]": {"settings": "in vivo, cited from earlier work"}, "[8]": {"molecular_target": "T1, connexin 43 (Cx43) gap junctions (Homo sapiens, UniProt P17302)", "T1 construct": "host or cells: astrocyte cancer cell co-cultures", "T1 sequence (P17302 2-382 limits assumed, species assumed)": "as the sequence (P17302 2-382 limits assumed) above", "settings": "cited from earlier work"}, "brain metastases": {"tested_on": "brain metastases", "settings": "xenograft and immunocompetent models; cited from earlier work"}, "[9]": {"settings": "in vivo studies; cited from earlier work"}, "[10]": {"tested_on": "rodent SOD1^G93A astrocyte-induced toxicity", "assay": "ALS astrocyte-induced MN toxicity, rodent model of ALS", "assay_type": "cell-based"}, "gap junction channels": {"tested_on": "gap junction channels", "settings": "cited from earlier work"}},
  "note": "Entries after “also recorded” stand apart in the source; their conditions may differ. Where two headings read alike, the source gives them in different places.",
  "data": [
    {"molecule": "CC(=O)c1ccc2c(c1)[C@H](NC(=O)c1ccc(F)c(Cl)c1)[C@H](O)C(C)(C)O2", "note": "[tonabersat, N-[(3S,4S)-6-acetyl-3-hydroxy-2,2-dimethyl-3,4-dihydro-2H-1-benzopyran-4-yl]-3-chloro-4-fluorobenzamide]", "values": [
      {"measurement": "neuronal spiking and bursting activity", "setting": "[1]; 1 μM, 5 minutes after application, compared with 10 μM", "result": "less effective"},
      {"measurement": "hiPSC-Neuron spike activity", "setting": "[1]; 10 μM, 1 minute after application", "result": "reduction of hiPSC-Neuron spike activity"},
      {"measurement": "neuronal spiking and bursting activity", "setting": "[1]; 10 μM, within 5 minutes of application", "result": "significantly reduced neuronal spiking and bursting activity"},
      {"measurement": "hiPSC-Neuron spike activity", "setting": "[1]; 100 μM, 1 minute after application", "result": "reduction of hiPSC-Neuron spike activity"},
      {"measurement": "hiPSC-Neuron spike rate, burst rate, number of electrodes firing and bursting", "setting": "[1]; hiPSC-Astro/Neuron co-culture", "result": "reduced hiPSC-Neuron spike rate, burst rate, number of electrodes firing and bursting"},
      {"measurement": "hiPSC-Neuron firing", "setting": "[1]; hiPSC-Astro/Neuron co-culture, 1 and 5 minutes after application", "result": "reduced hiPSC-Neuron firing"},
      {"measurement": "levels of spiking and bursting activity after treatment versus untreated control co-cultures", "setting": "[2]; 10 μM acute treatment, day 6 of co-culture", "result": "not significantly different"},
      {"measurement": "ALS astrocyte-mediated hyperexcitability (neuronal spiking and bursting activity)", "setting": "[2]; day 6 of co-culture", "result": "significantly reduced"},
      {"measurement": "ALS astrocyte-mediated hyperexcitability (neuronal spiking and bursting activity)", "setting": "[2]; day 6 of co-culture, listed as Tonabersat", "result": "significant inhibition"},
      {"measurement": "concentration necessary to reduce ALS hiPSC-astrocyte mediated neuron spike activity", "setting": "[2]; MEA, co-cultured 1 week, 1 minute after application", "result": 100, "unit": "µM"},
      {"measurement": "neuronal electrophysiological activity", "setting": "hiPSC-MN alone", "result": "did not observe any change in neuronal electrophysiological activity; also recorded: does not result in an alteration of electrophysiological activity"},
      {"measurement": "rescue of ChAT MNs", "setting": "[3]; 1 μM, direct co-culture, 14 days", "result": "rescues ChAT MNs"},
      {"measurement": "neuroprotection of control hiPSC-MN in co-culture with ALS hiPSC-A", "setting": "[3]; 10 μM, early (day 5 to day 8 of co-culture)", "result": "neuroprotection of control hiPSC-MN; also recorded: Significant neuroprotection"},
      {"measurement": "neuroprotection of control hiPSC-MN in co-culture with ALS hiPSC-A", "setting": "[3]; 10 μM, late (day 11 to day 14 of co-culture)", "result": "This protection did not occur; also recorded: Significant neuroprotection was appreciated after early but not late exposure"},
      {"measurement": "rescue of ChAT MNs", "setting": "[3]; 10 μM, direct co-culture, 14 days", "result": "rescues ChAT MNs"},
      {"measurement": "neuroprotection of hiPSC-MN", "setting": "[3]; 100 μM, direct co-culture, 14 days", "result": "not neuroprotective"},
      {"measurement": "protection of non-MN populations (ChAT− and Isl1− neurons)", "setting": "[3]; direct co-culture with FALS and SALS hiPSC-A", "result": "protective to non-MN populations; also recorded: can be rescued with tonabersat"},
      {"measurement": "neuroprotection of hiPSC-MN (ChAT, Isl-1) from ALS astrocyte-mediated death", "setting": "[3]; direct co-culture, 1 μM, 10 μM and 100 μM, 14 day incubation", "result": "can protect MNs from ALS astrocyte-induced excitotoxicity; also recorded: protects hiPSC-MN from ALS astrocyte-mediated death in a dose-dependent manner; also recorded: dose-dependent neuroprotection"},
      {"measurement": "neuroprotection of hiPSC-MN (ChAT+, Isl1+)", "setting": "[4]; transwell co-culture, 14 days", "result": "neuroprotective effect of tonabersat was also seen; also recorded: confirms dose-dependent neuroprotection"},
      {"measurement": "rescue of non-motor neuron cell death", "setting": "[4]; transwell culture with FALS and SALS hiPSC-A", "result": "can be rescued with tonabersat"},
      {"measurement": "hiPSC-MN survival (ChAT+ and Isl1+)", "setting": "control hiPSC-MN", "result": "did not have any effect on hiPSC-MN survival; also recorded: no effect on ChAT+ and Isl1+ control hiPSC-MN survival"},
      {"measurement": "concentrations that specifically block Cx43 HC", "setting": "Cx43 HC; low concentrations", "result": "1 to 10", "unit": "µM"},
      {"measurement": "tolerability / safety", "setting": "[5]", "result": "well tolerated and safe"},
      {"measurement": "tolerability / safety", "setting": "[5]; listed as Tonabersat", "result": "excellent safety profile"},
      {"measurement": "effect on attacks of migraine aura", "setting": "[5]; study by Hauge and colleagues", "result": "preventive effect"},
      {"measurement": "efficacy on non-aura attacks", "setting": "[5]; study by Hauge and colleagues", "result": "no efficacy"},
      {"measurement": "neurogenic extravasation of plasma protein in the meninges", "setting": "[6]", "result": "reduce neurogenic extravasation of plasma protein in the meninges"},
      {"measurement": "cortical spreading depression", "setting": "[7]", "result": "inhibitory effects on cortical spreading depression"},
      {"measurement": "cortical spreading depression", "setting": "[7]; listed as Tonabersat", "result": "antagonize cortical spreading depression"},
      {"measurement": "release of IFNα and TNF", "setting": "[8]; astrocyte cancer cell co-cultures", "result": "inhibited"},
      {"measurement": "dye transfer from astrocytes to cancer cells", "setting": "[8]", "result": "inhibited dye transfer from astrocytes to cancer cells"},
      {"measurement": "brain metastases", "setting": "brain metastases", "result": "inhibited brain metastases"},
      {"measurement": "seizures", "setting": "[9]", "result": "inhibitory effects"}
    ]},
    {"molecule": "KQIEIKKFK [Gap19, nonapeptide derived from the cytoplasmic loop of Cx43]", "values": [
      {"measurement": "neuronal firing", "setting": "[1]; hiPSC-Astro/Neuron co-culture, 1 minute after application", "result": "reduced neuronal firing"},
      {"measurement": "neuroprotection against ALS astrocyte-induced MN toxicity", "setting": "[10]", "result": "can be neuroprotective"},
      {"measurement": "inhibition of astroglial Cx43 hemichannels", "setting": "Cx43 HC", "result": "inhibits astroglial Cx43 hemichannels in a dose-dependent manner"},
      {"measurement": "effect on gap junction channels", "setting": "gap junction channels", "result": "without affecting gap junction channels"}
    ]}
  ]
}
